Paper PMC7862302, “Self-assembling thermostable chimeras as new platform for arsenic biosensing” (Scientific Reports, 2021)

What was measured:
[1] = target: T1, Vmh2-ArsC; format: binding, Thermus thermophilus; conditions: chimera immobilised on gold; 50 mM Tris-HCl pH 7.5, 60 °C, 1 h incubation; detection in 1 M HCl; read-out: KAsIII (converted)
T1 construct: single-chain fusion: Vmh2 of Pleurotus ostreatus (N-terminal), 15-residue flexible linker, TtArsC, thrombin site LVPRGS, C-terminal His-tag; with Hydrophobin Vmh2 (Pleurotus ostreatus)

[2] = target: T2, ArsC-Vmh2; format: binding, Thermus thermophilus; conditions: chimera immobilised on gold; 50 mM Tris-HCl pH 7.5, 60 °C, 1 h incubation; detection in 1 M HCl; read-out: KAsIII (converted)
T2 construct: single-chain fusion: TtArsC (N-terminal), 15-residue flexible linker, Vmh2 of Pleurotus ostreatus, thrombin site LVPRGS, C-terminal His-tag; with Hydrophobin Vmh2 (Pleurotus ostreatus)

Question: How did the Kd [1] turn out when `O=[As]O` [As(III)] was run?
Answer: The Kd was 833 µM.

Question: What about the Kd [2] of the same compound?
Answer: Its Kd is 1540 µM.
